Where no end group is shown, it is not given here.

One data set relates to DRG neurons. The data set can be described thus: DRG neuron/CHO cell co-culture neurite outgrowth. Type of data set: cell-based, rat. As to conditions: for inhibition of the neurite outgrowth promoting effect of ninjurin: peptides 0.5 mg/ml, E17 rat DRG neurons on CHO cells expressing ninjurin. How it is done:
Cell culture and transfection. Chinese hamster ovary (CHO) cells were cultured in F-12 medium supplemented with 10% fetal calf serum (FCS). T cell leukemia cells (Jurkat) were grown in RPMI 1640 with 10% FCS. The expression vector pCMV-ninjurin was constructed by inserting the ninjurin cDNA into the plasmid pCMVneo (Brewer, C. B. (1994). Methods in Cell Biol. 43, 233-245). The pCMVneo or pCMV-ninjurin plasmids was transfected into CHO cells via calcium phosphate precipitation and into Jurkat cells via electroporation. Stable transfectants were selected by growth in medium containing G418 (400 μg/ml) and individual clones were isolated by limiting dilution. […] Primary cultures of neurons from dorsal root ganglia (DRG) were prepared from E17 rat embryos as previously described (Eichler et al., (1989) Brain Res 482, 340-346). Dissociated neurons were plated on confluent monolayers of either control CHO cells or CHO cell expressing ninjurin in 24-well plates. Cultures were grown in a medium which consists of 90% Eagles minimal essential medium (Gibco), 10% FCS, 20 μg/ml each of fluoro-deoxyuridine and uridine, and 50 ng/ml mouse NGF (gift from E. Johnson, Washington U.). Six hr after plating, the cells were fixed with 4% paraformaldehyde in PBS, and immunohistochemistry using anti-neurofilament H antibodies was performed. Following previously established criteria (Gennarini et al., (1991) Neuron 6, 595-606), approximately 50 neurites were chosen for measurement which each emerged from a single distinguishable cell body, were longer than the diameter of the neuronal cell body, and were identifiable over their entire length. The length of each neurite was measured after tracing them from the photomicrographs onto grided (2 mm) transparency film. Statistical analysis was performed using Sigma Plot (version 3.0). […]
Ninjurin-stimulated neurite outgrowth is mediated through the adhesion motif. […] The neuronal cultures were treated with peptides (0.5 mg/ml) corresponding to either the native or mutant sequences of the ninjurin adhesion motif, and neurite extension was monitored.

Data set [1] concerns ninjurin-expressing Jurkat cell transfectants. The data set can be described thus: Inhibition by synthetic peptides of ninjurin-mediated aggregation of ninjurin-expressing Jurkat cell transfectants. The format is cell-based. As to conditions: for inhibition of ninjurin-mediated adhesion relative to wild type peptide 6: single amino acid substitutions in residues 26 to 37, dose-dependent test. As for the experimental part: (§1) Cell adhesion assays. […] Aggregation assays were performed using Jurkat cells (Shimizu et al., (1990) Nature 345, 250-253) stably transfected with pCMV-ninjurin or pCMVneo (nonrecombinant control). The cells were washed twice with RPMI 1640 containing 5 mM Hepes buffer, suspended to a concentration of 2×10^6 cells/ml in RPMI1640 with 10% FCS, and 100 μl of the cell suspension were added to each well of a flat-bottomed 96-well microtiter plate. The formation of aggregates was examined after 1 hr using phase contrast microscopy. […] The ninjurin positive cells were stained red with 1 mM CMTMR (5-(and-6)-(((4-chloromethyl)benzoyl)amino) tetramethylrhodamine) and control cells were stained green with 1 mM CMFTA (5-chloromethylfluoresceindiacetate) as described in the manufacturer's protocol (Molecular Probes). The cells were resuspended to 1×10^6 cells/ml, and 3 ml of the mixed cell suspension was allowed to form aggregates in 6-well culture plates. The composition of the aggregates was monitored by fluorescence microscopy.
To directly investigate whether the N-terminal extracellular hydrophilic region is responsible for the observed homophilic adhesion, partially overlapping synthetic peptides whose sequences collectively encompass the entire predicted ninjurin extracellular domain were tested for their ability to inhibit the ninjurin-mediated adhesion. Aggregation assays with the ninjurin-expressing Jurkat cell transfectants were performed, and the degree of aggregation was examined after 60 minutes by measuring the number of cells incorporated in aggregates. Peptide 2 inhibited aggregation at a concentration of 0.1 mg/ml, and aggregation was completely abolished at concentrations above 1 mg/ml. In constrast, peptides 1 and 4 had no effect on aggregation at either of these concentrations.
To further delimit the site of interaction, an additional 4 peptides (peptides 5 through 8) were tested for their ability to inhibit ninjurin-mediated aggregation (Data not shown). […] To identify the amino acids most critical for ninjurin-mediated adhesion, peptides (9-15) stretching from residue 26 to 37, each containing single amino acid mutations, were tested in the aggregation assay. The ability of each of these peptides to inhibit ninjurin-mediated adhesion in a dose-dependent manner was examined. The seven residues between prolines 27 and 35 (P27 and P35) were most important.

For the next data set, the system named is Jurkat cells. Description: Aggregation assay with Jurkat cells stably transfected with pCMV-ninjurin. The format is cell-based. As for the experimental part: as §1
Ninjurin mutants fail to support aggregation. […] To investigate these possibilities, Jurkat cell lines expressing ninjurin molecules containing a double mutation (Arg28 to Asn and Asn29 to Ala) in the ninjurin adhesion motif was generated. […]

Data set [2] deals with the molecule itself. The data set can be described thus: aggregation assay, Jurkat cells stably transfected with pCMV-ninjurin against pCMVneo control. As for the experimental part: as §1, with “250–253)” for “250-253)”, “2 ×10^6” for “2×10^6”, “µl” for “μl”, “1 ×10^6” for “1×10^6”
In the next data set the test system is CHO cells. The data set can be described thus: Aggregation assay with ninjurin transfected CHO cells. Type of data set: cell-based, Chinese hamster. Particulars: counted at 15 min intervals, 37° C. How it is done:
For aggregation experiments using CHO cells, cells (ninjurin transfected and control) were harvested from confluent plates by treatment with trypsin, washed with F-12 medium, and resuspended at 1×10^6 cells/ml in F-12 with 10% FCS. Aggregation assays were performed on a rotary shaker at 80 rpm. Quantitation of aggregate formation was monitored at 15 min intervals by counting the number of particles using a hemocytometer (Takeichi, M. (1977). J. Cell. Biol. 75, 464-474). The extent of the aggregate formation is inversely proportional to the number of particles, and was determined by calculating an index Nt/No, where Nt and No were the total particle numbers at incubation times t and 0, respectively (Takeichi, 1977). All of the aggregation experiments were performed at 37° C.

[3] abbreviates: ninjurin-expressing Jurkat transfectants, aggregation examined after 60 minutes.

For the molecule PPRWGLRNRPIN [Peptide 6], in the data set on DRG neurons, the “inhibition of the neurite outgrowth promoting effect of ninjurin” value is “inhibited”. Besides, the “inhibitory activity on ninjurin-mediated aggregation compared with other peptides” value in data set [1] is “comparable to peptides 2 or 3”. Also, in data set [1] (setting [3]), the “concentration at which aggregation was completely abolished” value is recorded as “above 2 mg/ml” and the “concentration at which aggregation was inhibited” value is “higher than 0.4 mg/ml”.

As to “peptide containing a mutation in this sequence: peptide with a mutant sequence of the ninjurin adhesion motif; which mutation is not stated (PPRWGLRNRPIN; Rat)”, the “inhibition of the neurite outgrowth promoting effect of ninjurin” value in the data set on DRG neurons is given as “no significant inhibitory effect”. Take “12: residues 26 to 37 with substitution of Leu31 to Asn31 (SEQ ID NO:17) (PPRWGNRNRPIN; Rat) [Peptide 12]”: the “inhibition of ninjurin-mediated adhesion relative to wild type peptide 6” value in data set [1] is recorded as “did not exhibit altered inhibition”. Take “Peptide 14: residues 26 to 37 with substitution of Asn33 for Leu33 (SEQ ID NO:19) (PPRWGLRLRPIN; Rat)”: the “inhibition of ninjurin-mediated adhesion relative to wild type peptide 6” value was “more effective” in data set [1] and “greater inhibitory activity than wild type” in data set [1] (listed as Asn-33 to Leu33). Consider “15: residues 26 to 37 with substitution of Arg34 for Asn34 (SEQ ID NO:20) (PPRWGLRNNPIN; Rat) [Peptide 15]”, for which the “inhibition of ninjurin-mediated adhesion relative to wild type peptide 6” value in data set [1] was “less active”. With “11: residues 26 to 37 with substitution of Gly29 to Ala29 (SEQ ID NO:16) (PPRWALRNRPIN; Rat) [Peptide 11]”, the “inhibition of ninjurin-mediated adhesion relative to wild type peptide 6” value in data set [1] was “did not exhibit altered inhibition”. Same read-out and setting: as for “9: residues 26 to 37 with substitution of Arg28 to Asn28 (SEQ ID NO:14) (PPNWGLRNRPIN; Rat) [Peptide 9]”, the entry is “less active”.

`O=C(O)CN(CCN(CC(=O)O)CC(=O)O)CC(=O)O` [EDTA, reference compound]: in the data set with Jurkat cells (ninjurin-expressing Jurkat cells, 1 mM EDTA), the “aggregate formation in the presence of EDTA” value is “no aggregates were detected”.

On to “10: residues 26 to 37 with substitution of Trp29 for Ala29 (SEQ ID NO:15) (PPRAGLRNRPIN; Rat) [Peptide 10]”, for which the “inhibition of ninjurin-mediated adhesion relative to wild type peptide 6” value in data set [1] is listed as “less active”. Same read-out and setting: under “13: residues 26 to 37 with substitution of Arg32 for Asn32 (SEQ ID NO:18) (PPRWGLNNRPIN; Rat) [Peptide 13]” stands “less active”.

B1: rat ninjurin (other)
chain: MDPGTEEYELNGDLRPGSPGSPDASPPRWGLRNRPINVNHYANKKSAAESMLDIALLMANASQLKAVVEQGNEFAFFVPLVVLISISLVLQIGVGVLLIFLVKYDLNNPAKHAKLDFLNNLATGLVFIIVVVNIFITAFGVQKPVMDVAPRQ
notes: Full-length rat ninjurin (152 amino acids) expressed from pCMV-ninjurin in stably transfected Jurkat or CHO cells; In protein blots and immunoprecipitations it came from cell or tissue lysates; also called rat ninjurin 1; Nerve Injury Induced protein
As for B1, the binding result in data set [2] was “binds”.

B2: ninjurin: Nerve Injury Induced protein, 152 amino acids, rat (SEQ ID NO:4), expressed on transfected cells (protein)
chain: B1 chain
modifications: Rat
B2 had an average neurite length with DRG neurons (neurons grown for 6 hr on CHO cells expressing ninjurin, approximately 50 neurons) of 569±134 μm. Moreover, the “number of particles (aggregate formation)” value with CHO cells is listed as “decrease in the number of particles with time”. Moreover, the aggregate formation result in the data set on Jurkat cells (transfected Jurkat cells, after 1 hr) is recorded as “formation of large aggregates”.
